{"source": "patent EP3815699A1", "about": "“NEW MEANS AND METHODS FOR THERAPY AND DIAGNOSIS OF […]” (Technische Universität München, priority 2019, dated 2021)", "key": {"HAdV-C5 wt [1]": {"test_system": "HAdV-C5 wt", "assay": "Native agarose gel electrophoresis capsid formation assay (Fig. 3D)", "assay_type": "cell-based"}, "PML-NBs": {"test_system": "PML-NBs", "sequence (P29590 1-418 limits assumed)": "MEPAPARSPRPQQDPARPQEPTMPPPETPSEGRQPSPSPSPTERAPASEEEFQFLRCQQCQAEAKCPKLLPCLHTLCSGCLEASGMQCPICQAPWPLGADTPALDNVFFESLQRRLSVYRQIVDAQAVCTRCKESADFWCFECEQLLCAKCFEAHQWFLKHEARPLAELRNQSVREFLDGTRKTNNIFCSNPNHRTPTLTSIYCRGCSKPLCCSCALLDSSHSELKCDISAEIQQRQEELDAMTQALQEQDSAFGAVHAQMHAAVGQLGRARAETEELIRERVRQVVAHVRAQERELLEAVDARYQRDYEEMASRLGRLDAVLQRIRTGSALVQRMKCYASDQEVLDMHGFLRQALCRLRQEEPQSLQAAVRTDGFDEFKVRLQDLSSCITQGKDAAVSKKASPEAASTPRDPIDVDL", "assay": "Immunofluorescence count of PML-NBs per cell in uninfected H1299 cells (Fig. 4A)", "assay_type": "cell-based, Human", "details": "non-infected cells"}, "HAdV-C5 wt [2]": {"test_system": "HAdV-C5 wt", "assay": "Immunofluorescence count of HAdV replication centers marked by E2A (Fig. 4B)", "assay_type": "cell-based", "details": "HAdV infected cells"}, "[3]": {"test_system": "eGFP expressing HAdV-C5 based first generation adenoviral vector", "assay": "GFP fluorescence of non-replicating adenoviral vector in H1299 cells (Fig. 2C)", "assay_type": "cell-based", "details": "for GFP expression compared to the untreated control: 8µM ATO; for IC50: read-out: IC50 (GFP expression)", "experimental": "(§1) • Figure 1: ATO efficiently reduces HAdV infectivity (cf. Example 1). H1299 cells were infected with HAdV-C5 wt at a multiplicity of 5 FFU/cell, treated with the depicted concentrations of ATO at 2 h.p.i., fixed 48 h.p.i. with 4 % PFA and double labeled with mAb B6-8 (α-E2A) and pAb L133 (α-Capsid). Primary antibodies were detected using Alexa488 (E2A, green) and Alexa568 (Capsid, red) conjugated secondary antibodies. (A) The number of E2A and Capsid expressing cells, respectively, was counted in n=40 overview pictures (not shown), normalized to untreated, infected cells, and represented in bar charts. Bar charts represent average values and standard deviations based on four independent experiments. (B) H1299 cells were infected with HAdV-C5 at a multiplicity of 20 FFU/cell, and treated with the depicted concentrations of ATO at 2 h.p.i.. Viral particles were harvested 48 h.p.i. and virus yield was determined by quantitative E2A immunofluorescence staining in 293 cells. Bar charts represent average values and standard deviations based on three independent experiments. Statistically significant differences were determined using a two-sided Welch's t-test. *: P ≤ 0.05, **: P ≤ 0.01, ***: P ≤ 0.001, ****: P ≤ 0.0001. • Figure 2: ATO induces a dose dependent reduction of HAdV infectivity with minor effects on cell viability (cf. Example 2). […] 24 or 48 h.p.i., cell viability was assessed using the Promega CellTiter-Blue Cell Viability Assay system, prior to fixation with 4 % PFA and cells were double labeled with mAb B6-8 (α-E2A) and pAb L133 (α-Capsid). Primary antibodies were detected using Alexa488 (E2A, green) and Alexa647 (Capsid, red) conjugated secondary antibodies. Fluorescence intensity was measured using a Tecan Infinite 200M plate reader using an excitation and emission wavelength of 488 and 520nm for Alexa488 and 640 and 670nm for Alexa647 respectively. Fluorescence intensity was normalized to untreated, infected cells at 48h p.i.. xy charts represent average values and standard deviations based on three independent experiments measured in triplicates. (B) H1299 cells were infected with an HAdV-C5 delta E3 virus, encoding a CMV promoter driven eGFP expression cassette, at a multiplicity of 20FFU/cell and treated with the depicted concentrations of ATO at 2h p.i.; 24 or 48 h p.i. cell viability was assessed using the Promega CellTiter-Blue Cell Viability Assay system, and GFP fluorescence intensity was measured using a Tecan Infinite 200M plate reader using an excitation and emission wavelength of 488 and 520nm. Fluorescence intensity was normalized to untreated, infected cells at 48h p.i.; xy charts represent average values and standard deviations based on three independent experiments measured in triplicates. […]"}, "H1299 cells": {"test_system": "H1299 cells", "assay_type": "cell-based, Human", "details": "lower panel", "experimental": "as §1, with “triplicates.” for “triplicates. (B) H1299 cells were infected with an HAdV-C5 delta E3 virus, encoding a CMV promoter driven eGFP expression cassette, at a multiplicity of 20FFU/cell and treated with the depicted concentrations of ATO at 2h p.i.; 24 or 48 h p.i. cell viability was assessed using the Promega CellTiter-Blue Cell Viability Assay system, and GFP fluorescence intensity was measured using a Tecan Infinite 200M plate reader using an excitation and emission wavelength of 488 and 520nm. Fluorescence intensity was normalized to untreated, infected cells at 48h p.i.; xy charts represent average values and standard deviations based on three independent experiments measured in triplicates.”"}, "HAdV-C5 wt [4]": {"test_system": "HAdV-C5 wt", "assay": "Immunofluorescence count of E2A and capsid expressing infected cells (Fig. 1A)", "assay_type": "cell-based", "experimental": "as §1"}, "HAdV-C5": {"test_system": "HAdV-C5", "assay": "Virus yield / progeny production by quantitative E2A immunofluorescence staining in 293 cells (Fig. 1B)", "assay_type": "cell-based", "experimental": "as §1, with “triplicates.” for “triplicates. (B) H1299 cells were infected with an HAdV-C5 delta E3 virus, encoding a CMV promoter driven eGFP expression cassette, at a multiplicity of 20FFU/cell and treated with the depicted concentrations of ATO at 2h p.i.; 24 or 48 h p.i. cell viability was assessed using the Promega CellTiter-Blue Cell Viability Assay system, and GFP fluorescence intensity was measured using a Tecan Infinite 200M plate reader using an excitation and emission wavelength of 488 and 520nm. Fluorescence intensity was normalized to untreated, infected cells at 48h p.i.; xy charts represent average values and standard deviations based on three independent experiments measured in triplicates.”"}, "HAdV-C5 wt [5]": {"test_system": "HAdV-C5 wt", "assay": "Western blot of viral protein expression (Fig. 3C)", "assay_type": "cell-based", "details": "1 and 2µM ATO"}, "[6]": {"details": "ATO concentration not stated at the place"}}, "note": "“Also recorded” adds a separate entry of the source. Where two headings read alike, the source gives them in different places."}
{"substance": "arsenic trioxide [ATO]", "values": [{"measurement": "signal obtained after capsid staining (native gel assay)", "setting": "HAdV-C5 wt [1]", "value": "significantly reduced"}, {"measurement": "capsid protein expression", "setting": "HAdV-C5 wt [1]; denatured input lysates, right panel", "value": "reduced"}, {"measurement": "number of PML-NBs", "setting": "PML-NBs", "value": "significantly decreases"}, {"measurement": "RC in number (replication centers)", "setting": "HAdV-C5 wt [2]", "value": "significant reduction"}, {"measurement": "GFP expression compared to the untreated control", "setting": "[3]; 24h p.i.", "value": "Less than 50%"}, {"measurement": "GFP expression compared to the untreated control", "setting": "[3]; 48h p.i.", "value": "Less than 50%"}, {"measurement": "IC50", "setting": "[3]; 24h p.i.", "value": 6.49, "unit": "µM"}, {"measurement": "IC50", "setting": "[3]; 48h p.i.", "value": 10.2, "unit": "µM"}, {"measurement": "cellular cytotoxicity of ATO", "setting": "H1299 cells; H1299 infected with HAdV-C5 wt, ATO 0-10 µM, Fig. 2A", "value": "no clear effect"}, {"measurement": "cellular cytotoxicity of ATO", "setting": "H1299 cells; H1299 infected with non-replicating eGFP vector, ATO 0-8µM, Fig. 2C", "value": "no clear effect"}, {"measurement": "cellular cytotoxicity of ATO", "setting": "H1299 cells; H1299 infected with replication competent HAdV-GFP, Fig. 2B", "value": "no clear effect"}, {"measurement": "reduction of early viral DNA binding protein E2A expression", "setting": "HAdV-C5 wt [4]; 1µM ATO, H1299, 5 FFU/cell, ATO at 2 h.p.i., 48 h.p.i.", "value": 40, "unit": "%"}, {"measurement": "inhibition of late capsid protein expression", "setting": "HAdV-C5 wt [4]; 2.0µM ATO, H1299, 5 FFU/cell, ATO at 2 h.p.i., 48 h.p.i.", "value": "~80", "unit": "%"}, {"measurement": "reduction in cells expressing E2A", "setting": "HAdV-C5 wt [4]; [6]", "value": "up to 40%"}, {"measurement": "reduction in cells expressing capsid", "setting": "HAdV-C5 wt [4]; [6]", "value": "up to 80%"}, {"measurement": "reduction of virus yield", "setting": "HAdV-C5; 1µM ATO, H1299, 20 FFU/cell, harvested 48 h.p.i.", "value": 80, "unit": "%"}, {"measurement": "virus particle synthesis / virus yield", "setting": "HAdV-C5; 2µM ATO, compared to non-treated infected control cells", "value": "abolished; also recorded: completely abolishing"}, {"measurement": "reduction in virus yield", "setting": "HAdV-C5; ATO concentration not given", "value": 80, "unit": "%"}, {"measurement": "E1B-55K viral protein", "setting": "HAdV-C5 wt [5]", "value": "decrease"}, {"measurement": "E4orf6 viral protein", "setting": "HAdV-C5 wt [5]", "value": "decrease"}]}
